# Measurements published in patent US20220016080A1, “COMPOUNDS THAT SELECTIVELY AND EFFECTIVELY INHIBIT HAKAI-MEDIATED UBIQUITINATION, AS ANTI-CANCER DRUGS” (FUNDACIÓN PROFESOR NOVOA SANTOS, priority 2018, published 2022).
# Legend:
# [1] = test system: HT29 cells; experiment: Migration assay, HT29; type: cell-based; conditions: HT-29; treated 48 h
# Method: For invasion assays, cells were treated with Hakin-1 or DMSO as vehicle for 48 h using 1% FBS during the last 24 hours. 3×10^5 MDCK, MDCK-Hakai or LoVo cells were seeded in a cell invasion chamber (Cell invasion assaykit, Chemicon International) containing medium with 2% FBS. After 72 hours for MDCK and MDCK-Hakai Invasive and 16 h for LoVo cells, invasive cells invaded that reach the lower chamber containing 30% FBS were fixed and stained with crystal violet (Sigma Aldrich, St Louis, Mo.) following the manufacturer's specifications. For migration assays, HT29 cells were cultured with Hakin-1 or DMSO as vehicle for 48 h, using medium without serum the last 24 h. In the cell migration chamber were seeded 3×10^5 HT29 cells (Cell migration kit, Millipore, Bedford, Mass.) containing medium without serum. After 16 h, migrated cells in the lower chamber containing serum with 30% FBS were stained with crystal violet and counted following the manufacturer's specifications. For both invasion and migration assays cells were counted in five fields photographed with an Olympus microscope using a 20× objective, experiments were performed in triplicates for each condition and the assays were repeated at least three times. Results are expressed as mean±SD.
# [2] = test system: HT-29 colon tumour cell line; experiment: MTT cell viability assay, HT29; type: cell-based; conditions: 72 h, analogues at 50-500 μM
# Method: For cytotoxicity assays, 1×10^4 cells were seeded per well into a 96-well plate. After 24 h cells were treated with the indicated inhibitors for 72 h and a MTT colorimetric cell viability assay was performed following manufacturer's instructions (Sigma Aldrich, St Louis, Mo.). Absorbance was measured at 570 and 630 nm using a Multiskan Plus Reader (Nanoquant Infinite M200 Tecan Trading AG, Switzerland). Dose-response curves were designed with Graph Pad Prism Software and the half-maximal inhibitory concentration (IC50) values were calculated. Represented data are the mean±SEM of at least three independent experiments with six replicates per condition.
# [3] = test system: prostate cancer PC-3 cells; experiment: BrdU proliferation assay, PC-3; type: cell-based, human; conditions: 48 h
# Method: (§1) For BrdU assays, 1×10^4 of indicated cells were plated per well into a 96-well plate. After 24 h, cells were treated with the indicated inhibitors for 48 h. Three independent experiments were plated with six replicates per each condition. Cells were treated with […] BrdU for 2 h. BrdU incorporation into newly synthesized DNA was measured using a cell proliferation colorimetric immunoassay kit according to the manufacturer's instructions (Roche, Switzerland). Results are expressed as mean±S.D. Results are represented as percentage of positive cells (mean±S.D) of three independent experiments.
# [4] = test system: Hakai-MDCK cells; experiment: BrdU proliferation assay, Hakai-MDCK; type: cell-based; conditions: 48 h
# Method: as §1
# [5] = test system: Hakai-transformed MDCK cells; experiment: Phase-contrast cell phenotype, Hakai-MDCK; type: cell-based
# Method: MDCK, HEK293T, HepG2, MCF7 and ACHN cells were cultured in Dulbecco's Modified Eagles Medium (DMEM). MDCK stably expressing Hakai cells (Hakai-MDCK) were previously reported and were growth in DMEM with G418 (800 μg/ml). […] LoVo and PC-3 cells were cultured in F-12K Medium (Kaighn's Modification of Ham's F-12 Medium) and HT-29 cells in McCoy's 5a Medium Modified. 5637 cells were cultured in RPMI medium. All culture media were supplemented with 1% penicillin/streptomycin and 10% of heat-inactivated fetal bovine serum (FBS) at 37° C. in a humidified incubator with 5% CO2. Cells were monthly tested for mycoplasma contamination and used only for 1-3 months after defrosted. LoVo and HT29 cells were authenticated with the StemElite ID system (Promega). For phase-contrast images, culture cells were photographed with a Nikon Eclipse-TI microscope.
# [6] = test system: HT-29 cells; experiment: Soft agar-colony formation assay, HT29; type: cell-based; conditions: 28 days
# Method: (§2) Soft agar-colony formation assay was performed on 12-well plates in triplicates at a density of 5×10^3 MDCK and MDCK-Hakai cells/well, or 12×10^3 HT29 cells/well. Cells were seeded in medium with 0.5% low-melting agarose over a layer with 0.75% low-melting agarose (Lonza Rockland, Me., USA). Cells were treated with the indicated inhibitors and DMSO was used as vehicle. Treatment was refreshed every 3 days and, after 21 days for MDCK and MDCK-Hakai cells or 28 days for HT29 cells, number of colonies were quantified. Quantification of five randomly-selected fields of each condition was photographed with a Nikon Eclipse-TI microscope (objective 4×). Experiments were conducted with three triplicates and were repeated three times. Data are represented as mean±SD.
# [7] = test system: Hakai-MDCK cells; experiment: Soft agar-colony formation assay, Hakai-MDCK; type: cell-based; conditions: 21 days
# Method: as §2
smiles,measurement,setting,value
"O=C(O)c1ccc(-n2nnnc2SCC(=O)c2ccc([N+](=O)[O-])cc2)cc1 [Hakin-1, 4-(5-{[2-(4-nitrophenyl)-2-oxoethyl]thiol}-1H-tetrazol-1-yl)benzoic acid]",cell migration,[1],important reduction of cell migration
same,"cytotoxicity effect (cell viability, MTT)",[2],important inhibitory response
same,cell proliferation (BrdU),[3],inhibits cell proliferation
same,cell proliferation (BrdU),[4],suppress proliferation
same,mesenchymal phenotype (phase contrast),[5],induction of an epithelial phenotype
same,colony formation (soft agar),[6],robust inhibition of colony formation
same,colony formation (soft agar),[7],robust inhibition of colony formation
